# Measured values published in patent US20220072019A1, “INHIBITORS OF SARM1 IN COMBINATION WITH NAD+ OR A NAD+ PRECURSOR” (Disarm Therapeutics, Inc., priority 2018, published 2022).
# “Also recorded” adds a separate entry of the source.
# Tested on: DRG axons
# Experiment: Axon degeneration assay (axotomy of mouse DRG drop cultures)
# Format: cell-based
# Method: Mouse dorsal root ganglion neurons (DRGs) were dissected out of E12.5 CD1 mice (50 ganglia per embryo) and incubated with 0.5% Trypsin solution containing 0.02% EDTA (Gibco) at 37° C. for 15 min. The cells were then triturated by gentle pipetting and washed 3 times with DRG growth medium (Neurobasal medium (Gibco) containing 2% B27 (Invitrogen), 100 ng/ml 2.5S NGF (Harland Bioproducts), […] 5-fluoro-2′deoxyuridine (Sigma), penicillin, and streptomycin). Cells were suspended in the DRG growth medium. DRG drop cultures were created by spotting 5000 cells/well into the center of each well of a 96-well tissue culture plate coated with poly-D-Lysine (0.1 mg/ml; Sigma) and laminin ([…]; Invitrogen). Cells were allowed to adhere to the plates in a humidified tissue culture incubator (5% CO2) for 15 min and then DRG growth medium was gently added ([…]).
# To study the axonal protective effects of combining NR supplementation with a SARM1 inhibitor, 6 day-old mouse DRG drop cultures were preincubated with 100 μM NR for 24 hours before axotomy. 2 hours prior to axotomy, DRG cultures were treated with SARM1 inhibitors, in the continued presence of 100 μM NR. Potent SARM1 inhibitors were selected from two classes: isoquinoline and isothiazole SARM1 inhibitors. Isoquinoline SARM1 inhibitors tested included I-26 and I-86, while isothiazole SARM1 inhibitors tested included II-6 and II-32. The SARM1 inhibitors were tested using concentrations ranging from 0.1 to 33 μM.
# A manual axotomy was performed at time 0 by transecting the axons of the DRG neurons with a blade. After axotomy, DRG cultures remained exposed to the to SARM1 inhibitor alone, 100 μM NR alone, or the combination of SARM1 inhibitor and NR. At either 16 or 24 hours, DRG cultures were fixed in a buffered solution containing 1% PFA and sucrose and stored at 4° C. prior to imaging. Bright-field images of DRG axons and cell bodies were collected using the 20× water immersion lens of a Phenix automated confocal microscope (PerkinElmer) and quantitation of axonal damage was performed using in-house developed scripts (Acapella, PerkinElmer). The effect of NR alone in protecting distal axons from fragmentation was determined at a concentration of 100 μM. The effect of combining 100 μM NR with varying concentrations of a SARM1 inhibitor was compared to the individual protective effects of either 100 μM of NR alone or an equivalent concentration of a SARM1 inhibitor alone.
# [1] = 1.1 μM SARM1 inhibitor alone, 24 h post-axotomy
# [2] = 3.3 μM SARM1 inhibitor alone, 24 h post-axotomy
# [3] = 3.3 μM SARM1 inhibitor alone, 16 h post-axotomy
smiles,measurement,setting,value
Ic1cccc2cnccc12 [I-26],axonal protection (degeneration index of DRG axons),[1],no statistically significant benefit
same,axonal protection (degeneration index of DRG axons),[2],more protection than with NR alone
same,axonal protection (degeneration index of DRG axons),"SARM1 inhibitor alone, concentration not stated in the sentence (1.1 or 3.3 μM tested), 16 h post-axotomy",modest amount of axonal protection
COc1cc(Br)c2ccncc2c1 [I-86],axonal protection (degeneration index of DRG axons),"1.1 μM SARM1 inhibitor alone, 16 h post-axotomy",NR alone provided greater protection than 1.1 μM compound I-86 alone
same,axonal protection (degeneration index of DRG axons),[1],less protection than NR alone
same,axonal protection (degeneration index of DRG axons),[3],greater protection than NR alone
N#Cc1c(O)nsc1Nc1ccccc1C(F)(F)F [II-6],axonal protection (degeneration index of DRG axons),[3],stronger protection that NR alone; also recorded: stronger protection than NR alone
same,axonal protection (degeneration index of DRG axons),[2],stronger protection than NR alone
COCCn1sc(Nc2ccccc2C(F)(F)F)c(C#N)c1=O [II-32],axonal protection (degeneration index of DRG axons),"0.11 μM SARM1 inhibitor alone, 16 h post-axotomy",NR alone provided greater protection than 0.11 μM and 0.33 μM of compound II-32 alone
same,axonal protection (degeneration index of DRG axons),"0.11 μM SARM1 inhibitor alone, 24 h post-axotomy",NR alone provided greater protection than 0.11 μM and 0.33 μM compound II-32 alone
same,axonal protection (degeneration index of DRG axons),"0.33 μM SARM1 inhibitor alone, 16 h post-axotomy",NR alone provided greater protection than 0.11 μM and 0.33 μM of compound II-32 alone
same,axonal protection (degeneration index of DRG axons),"0.33 μM SARM1 inhibitor alone, 24 h post-axotomy",NR alone provided greater protection than 0.11 μM and 0.33 μM compound II-32 alone
same,axonal protection (degeneration index of DRG axons),"1 μM SARM1 inhibitor alone, 16 h post-axotomy",greater protection than NR alone
same,axonal protection (degeneration index of DRG axons),"1 μM SARM1 inhibitor alone, 24 h post-axotomy",greater protection than NR alone
"NC(=O)c1ccc[n+]([C@@H]2O[C@H](CO)[C@@H](O)[C@H]2O)c1 [NR, 1-(β-D-ribofuranosyl)nicotinamide, reference compound]",axonal protection (degeneration index of DRG axons),"100 μM NR alone, 16 h post-axotomy",modest amount of axonal protection
same,axonal protection (degeneration index of DRG axons),"100 μM NR alone, 24 h post-axotomy",modest level of protection
